US6982249B1, “Bradykinin analogs as selective inhibitors of cell activation” (The Regents of the University of Michigan, priority 1997, dated 2006)
Entries after “also recorded” stand apart in the source; their conditions may differ. Where two headings read alike, the source gives them in different places. Square brackets hold non-standard residues; d marks the D form. Ends that are not written are not given here.

How the values were obtained:
[1] = tested on: γ-thrombin-induced platelet aggregation; test: γ-thrombin-induced platelet aggregation in human platelet-rich plasma; type: cell-based; conditions: for inhibition of γ-thrombin-induced platelet aggregation (in words): assay like Example 1A
Method: For human platelet aggregation studies, 50 ml human blood was collected into a syringe containing 5 ml of 0.013 M sodium citrate. The anticoagulated blood was centrifuged at 180 xg for 10 minutes at room temperature and the platelet-rich plasma was the supernatant. Platelet aggregation studies in platelet-rich plasma were performed in the cuvette of an aggregometer using γ-thrombin (Haematologic Technologies, Essex Junction, Vt.). After standardization of the aggregometer, the threshold dose of γ-thrombin, defined as the minimal concentration that will induce full platelet aggregation, was ascertained for each preparation of platelet-rich plasma. Typically, the threshold dose of γ-thrombin was between 5 and 30 nM.
Various concentrations of the peptide being tested were added to the platelet-rich plasma in the cuvette of the aggregometer. Platelet aggregation was induced by the addition of γ-thrombin. The degree of platelet aggregation was determined by measuring (in arbitrary units) the increase in light transmission through the stirred suspension of platelet-rich plasma. […]
The peptides synthesized in Example 4 were assayed for the ability to inhibit γ-thrombin-induced platelet aggregation in platelet-rich plasma.

[2] = tested on: fibroblasts (thrombin receptor, PAR 1); test: α-thrombin-induced calcium mobilization in fibroblasts; type: cell-based
Method: A variation of the calcium mobilization assay uses fibroblasts (which express a single receptor for thrombin, PAR 1), umbilical vein endothelial cells, or other cells which express the cloned thrombin receptor, and which grow in monolayers on the bottom of plastic wells.
Fibroblasts or endothelial cells were grown in 24-96 well plates and loaded with the fluorescent Ca^2+ indicator fura-2 acetyloxymethylester (5 μM, Molecular Probes Inc.) by incubation for 60 min. in HEPES-Tyrode's buffer at 37° C. After washing the cells, the fluorescence of the cells was monitored on a thermostatically controlled heated pad at 37° C. for 1 min, then the cells were incubated with α-thrombin (1 to 5 nM) in the absence or presence of a BK analog. Fluorescence was detected by a Perkin-Elmer LS-50B Luminescence Spectrofluorometer. Excitation was measured at 340 and 380 nm wavelength and emission was assessed at 510 nm. The cytosolic Ca^2+ levels were determined as described above. The Rmax value was determined using 10 mM Ca^2+ in the presence of 20 μM Ionophor A23187; Rmin was determined in the presence of 20 mM EDTA.
The ability of BK analogs to inhibit α-thrombin-induced calcium mobilization in fibroblasts and human umbilical vein endothelial cells (HUVEC) was assayed as described in Example 1C.

[3] = molecular target: T1, NAT12 (thrombin receptor cleavage site) (Homo sapiens, UniProt P25116); test: Binding of biotinylated NAT12 to peptides linked to microtiter plates; conditions: peptide linked to microtiter plate
T1 construct: spans amino acids 35-46 of the α-thrombin cleavage site on the thrombin receptor
Method: (§1) Peptides from a combinatorial library are linked to microtiter plates and the wells are blocked with 1% BSA. Biotinylated-NAT12 is incubated with the microtiter plates. After washing, the presence of biotin-NAT12 attached to the matrix support expressing peptides is detected by incubation with ImmunoPure streptavidin horseradish peroxidase conjugate (Pierce Chemical Co., Rockville Ill.) followed by peroxidase-specific fast reacting substrate, turbo-3,3′,5,5′-tetramethylbenzidine (turbo-TMB, Pierce Chemical Co., Rockville Ill.). After incubation for 5 min at room temperature, the color reaction of the turbo-TMB is stopped by the addition of 1 M phosphoric acid. The bound peptide is quantified by measuring the absorbance of the reaction mixture at 450 nm using a Microplate auto reader EL311 (BioTek Instrument, Winooski Vt.).
The specific binding of biotinylated NAT12 to BK analogs and other peptides was assayed as described in Example 2A.

[4] = molecular target: T2, NAT12 (SEQ ID NO:2), α-thrombin cleavage site on the thrombin receptor (Homo sapiens, UniProt P25116); test: α-thrombin cleavage of NAT12 peptide (HPLC); type: biochemical; conditions: 1 mM peptide, 8 nM α-thrombin
T2 construct: spans amino acids 35-46 of the α-thrombin cleavage site on the thrombin receptor
Method: The peptide NAT12 (SEQ ID NO:2), which spans amino acids 35-46 of the α-thrombin cleavage site on the thrombin receptor (Vu et al., Cell 64, 1057 (1991), was also used to determine whether BK analogs blocked α-thrombin cleavage of the cloned receptor.
The cleavage studies were performed according to the method of Molino et al., J. Biol. Chem. 270, 11168 (1995). Briefly, NAT12 (SEQ ID NO:2) was dissolved in a solution of 0.01 M NaH2PO4 and 0.15 M NaCl, pH 7.4. The mixture was then incubated with 8 nM α-thrombin for one hour at 37° C. either in the absence (control) or presence of 1 mM of a BK analog. Following incubation, the mixture was applied to a Vyadec C-18 HPLC column in 0.1% trifluoroacetic acid and eluted with a gradient from 0% to 100% of 80% MeCN and 0.1% trifluoroacetic acid. The sizes of the separated products were confirmed by mass spectrometry.
NAT12 (SEQ ID NO:2) produced a single peak (peak 1) when analyzed by HPLC. […] The additional peaks, peaks 3 and 2, represent the cleavage products of NAT12.

[5] = In vivo clearance after single intravenous infusion (plasma ELISA); design: species or system New Zealand white rabbits; conditions: rabbit; for half-life: single i.v. infusion
Method: (§2) Clearance studies were performed in New Zealand white rabbits weighing between 2.0 and 2.5 kg. Rabbits were premedicated according to the method of Michelson et al., J. Mol. Cell Cardiol. 20, 547 (1988) with 10 mg/kg 1 M xylazine and 10 mg/kg 1 M ketamine. After tracheostomy, intubation, and positive pressure ventilation done with room air (Harvard instruments), stage III surgical anesthesia was maintained with 20 mg/ml of intravenous pentobarbital. A carotid artery and a jugular vein were then exposed. A catheter was inserted into the exposed carotid artery for withdrawal of blood samples and monitoring the animal's blood pressure (Gould, Inc., Cardiovascular Products, Oxnard. Calif.). In a similar manner, a catheter was inserted into the exposed jugular vein for administering the anesthetic and BK analog.
(§3) A single intravenous infusion of BK analog was injected. The amount of BK analog injected was calculated from the weight of the animal such that the blood concentration was 1 mM peptide. For example: for a 2.5 kg rabbit, 7% of its weight gives an estimated blood volume of 175 ml. Accordingly, 89 mg of the control BK fragment SEQ ID NO:7 was injected (giving a 1 mM concentration in the 175 ml plasma). Depending upon the size of the animal, 75 to 90 mg peptide was injected. Blood samples were collected at 2, 4, 6, 8, 10, 20, 30, 40, 60, 90, and 120 minute intervals after infusion into a 0.013 M sodium citrate anticoagulant solution. Plasma was prepared from each of the blood samples collected over time by centrifugation of the blood samples at 10,000×g for two minutes. Aliquots of the plasmas were assayed for the presence of the BK analog antigen by the ELISA technique using a MARKIT-M [1-5] BK assay from Dainippon Pharmaceutical Co., Ltd., Osaka, Japan.

[6] = Observations of the animals after bolus injection (blood pressure, pulse, platelet count, bleeding); type: in vivo, New Zealand white rabbits; conditions: rabbit, i.v. bolus
Method: as §2, §3

RPPGC = molecular target: T3, RPPGC (not fully specified); test: microtiter plate assay, plate-linked peptide, biotin-NAT12 detected with streptavidin-HRP
T3 peptide: RPPGC
Method: as §1, with “turbo-3,3',5,5'-tetramethylbenzidine” for “turbo-3,3′,5,5′-tetramethylbenzidine”
(§4) Peptides from a combinatorial library are linked to a microtiter plate and blocked with 1% BSA. Biotinylated-NAT12 is incubated with the microtiter plate. After washing, the presence of biotin-NAT12 attached to the matrix support expressing peptides is detected by incubation with Immu-noPure streptavidin horseradish peroxidase conjugate (Pierce Chemical Co., Rockville Ill.) followed by peroxidase-specific fast reacting substrate, turbo-3,3',5,5'-tetramethylbenzidine (turbo-TMB, Pierce Chemical Co., Rockville Ill.). After incubation for 5 min at room temperature, the color reaction of the turbo-TMB is stopped by the addition of 1 M phosphoric acid. The bound peptide is quantified by measuring the absorbance of the reaction mixture at 450 nm using a Microplate auto reader EL311 (BioTek Instrument, Winooski Vt.). Compounds which bind the NAT12 peptide are also assayed for the ability to inhibit platelet aggregation and the ability to inhibit calcium mobilization, using the assays described in Example 1.

LNA7 = molecular target: T4, LNA7; test: as above
T4 construct: Control peptide
T4 peptide: LNAENNA
Method: as §1, with “turbo-3,3',5,5'-tetramethylbenzidine” for “turbo-3,3′,5,5′-tetramethylbenzidine”
as §4

FSPFR = molecular target: T5, FSPFR; test: as above
T5 construct: Control peptide
T5 peptide: FSPFR
Method: as §1, with “turbo-3,3',5,5'-tetramethylbenzidine” for “turbo-3,3′,5,5′-tetramethylbenzidine”
as §4

NAT12 = molecular target: T6, NAT12; test: cell-based or functional assay
T6 chain: NATLDPRSFLLR

Arg-Pro
inhibition of γ-thrombin-induced platelet aggregation (in words) ([1]; human PRP): no inhibitory activity

Arg-Pro-Pro [RPP]
γ-thrombin-induced platelet aggregation at 50 μM peptide (FIG. 2) ([1]; 50 μM peptide, 27.5 nM γ-thrombin): abolish
fold better as an inhibitor than RPPGF ([1]; 100% inhibition of γ-thrombin-induced aggregation, same conditions): greater than 2.5 fold
inhibition of γ-thrombin-induced platelet aggregation (in words) ([1]; human PRP): showed inhibition
concentration that inhibited γ-thrombin-induced platelet aggregation 100% ([1]; mean±SD of 3 or 5 experiments, human PRP): 0.089 mM
inhibition of α-thrombin-induced calcium mobilization in fibroblasts (FIG. 5) [2]: inhibited calcium mobilization; also recorded: inhibition

Arg-Pro-Pro-Ala-Phe (RPPAF; bradykinin analog)
inhibition of γ-thrombin-induced platelet aggregation (in words) ([1]; human PRP): showed inhibition

Arg-Pro-Pro-Amide [RPP-Amide]
inhibition of γ-thrombin-induced platelet aggregation (in words) ([1]; human PRP): reduced ability

Arg-[dP]-Pro
inhibition of γ-thrombin-induced platelet aggregation (in words) ([1]; human PRP): reduced ability

FSPFR: peptide FSPFR (SEQ ID NO: 10) (bradykinin analog)
specific binding of biotinylated NAT12 to the peptide (FIG. 4) [3]: not

LNA7: non-BK analog peptide (SEQ ID NO:8) (LNAENNA; bradykinin analog)
inhibition of γ-thrombin-induced platelet aggregation ([1]; 1 mM peptide, 20 nM γ-thrombin, human PRP): unable to inhibit
specific binding of biotinylated NAT12 to the peptide (FIG. 4) [3]: not

RPPGC: peptide RPPGC (SEQ ID NO:9) (bradykinin analog)
specific binding of biotinylated NAT12 to the peptide (FIG. 4) [3]: specifically bound

RPPGF [RPPGF, Arg-Pro-Pro-Gly-Phe]
reduction of NAT12 peak 1 area after α-thrombin treatment ([4]; 1 h 37° C., without peptide 81%): 57%
NAT12 cleavage product peak 2, share of original peak area ([4]; without peptide 37%): 26%
NAT12 cleavage product peak 3, share of original peak area ([4]; without peptide 44%): 31%
Cmax ([5]; New Zealand white, plasma, iv, single i.v. infusion 75 to 90 mg, ELISA, two of three rabbits, read-out: peak plasma concentration after infusion): 60 µg/mL
half-life ([5]; New Zealand white, plasma, iv, read-out: half-life of antigen clearance in plasma, first phase): 2.8 min
half-life ([5]; New Zealand white, plasma, iv, read-out: half-life of antigen clearance in plasma, second phase): 20 min
peak plasma concentration after infusion ([5]; single i.v. infusion 75 to 90 mg, ELISA, two of three rabbits): 0.120 mM
bleeding at the surgical sites of cutdowns and intubations [6]: no abnormal bleeding
blood pressure, pulse, and platelet count [6]: remained stable
unfavorable effects following the bolus injection [6]: No unfavorable effects were observed

[dR]-Pro-Pro
inhibition of γ-thrombin-induced platelet aggregation (in words) ([1]; human PRP): reduced ability

B1: biotinylated NAT12 (peptide)
peptide: NATLDPRSFLLR
modifications: also: biotinylated (position not given here)
notes: It was in solution in the microtiter plate assay; also called biotin-NAT12
binding result (RPPGC): binds
binding result (LNA7): no binding
binding result (FSPFR): no binding

RPPGF (modifications not checked) [Arg-Pro-Pro-Gly-Phe (RPPGF)]
cleavage product peak 2, as a share of the original NAT12 peak area, in the presence of 1 mM peptide (NAT12): 26%
cleavage product peak 3, as a share of the original NAT12 peak area, in the presence of 1 mM peptide (NAT12): 31%
reduction of the NAT12 HPLC peak area (peak 1) after alpha-thrombin in the presence of 1 mM peptide (NAT12): 57%
